Measured values taken from publication PMC5300872, “Convergent evolution of the arginine deiminase pathway: the ArcD and ArcE arginine/ornithine exchangers” (MicrobiologyOpen, 2016).

Biological target: T1, ArcD1 (Lactococcus cremoris, UniProt A2RNI5)
T1 construct: plasmid pNZarcD1, nisin-inducible; expressed in L. lactis deltaarcD1D2 cells
T1 sequence (A2RNI5 1-526): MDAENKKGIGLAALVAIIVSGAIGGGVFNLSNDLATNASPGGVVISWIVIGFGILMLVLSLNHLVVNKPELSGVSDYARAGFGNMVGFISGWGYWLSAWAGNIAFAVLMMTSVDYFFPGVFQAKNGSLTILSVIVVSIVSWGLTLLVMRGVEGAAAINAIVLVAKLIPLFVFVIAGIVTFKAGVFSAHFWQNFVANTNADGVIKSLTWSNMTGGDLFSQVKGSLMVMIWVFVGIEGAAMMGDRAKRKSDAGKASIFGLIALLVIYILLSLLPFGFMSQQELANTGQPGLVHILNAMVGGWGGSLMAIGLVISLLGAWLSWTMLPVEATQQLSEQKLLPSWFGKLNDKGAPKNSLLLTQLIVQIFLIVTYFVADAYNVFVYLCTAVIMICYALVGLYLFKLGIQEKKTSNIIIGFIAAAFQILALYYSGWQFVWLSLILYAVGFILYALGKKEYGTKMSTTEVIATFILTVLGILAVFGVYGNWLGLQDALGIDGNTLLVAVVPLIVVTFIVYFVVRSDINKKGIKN
Experiment: inhibition of […]L-ornithine uptake in resting cells
Assay type: cell-based
Conditions: read-out: ArcD1 / KI ^b (μm)

Ki: 529 ± 135 µM
Structure (SMILES): NC(=O)NCCC[C@H](N)C(=O)O [L‐Citr, L‐citrulline]
